Experimental findings from US12109266B2, “Modulating gabarap to modulate immunogenic cell death” (Dana-Farber Cancer Institute, Inc., priority 2020, dated 2024) are described below.

Assay [1] concerns 5TGM1 MM cells. Nature of the assay: Cell surface exposure of CALR (flow cytometry). The assay is classed as cell-based, murine. The conditions noted are these: 16 h. On the procedure: Multiple myeloma (MM) cells were seeded in 12-well plates (2×10^5 per well), treated with BTZ for 16 h at indicated concentrations, and then stained with Alexa Fluor647® anti-calreticulin antibody (ab196159, Abcam) and 7-AAD. Analysis of fluorescence intensity on 7-AAD negative cells was assessed using BD LRSFortessa™ X-20 flow cytometer.
MM cells were seeded in 12-well plates (2×10^5 per well), treated with BTZ for 16 h at indicated concentrations, and then stained with Alexa Fluor647® anti-calreticulin antibody (ab196159, Abcam) and 7-AAD. Analysis of fluorescence intensity on 7-AAD negative cells using BD LRSFortessa X-20 flow cytometer.
(In general: A flow cytometer gives signals particle by particle.)

For assay [2], the system named is type-I IFN response in AMO1 and NCI-H929 MM cells. As to the kind of experiment: Type-I IFN response in MM cells (RNA-seq, qRT-PCR, ELISA). The format is cell-based, human. To be noted: BTZ 5 nM. As to the method: Total RNA from multiple myeloma cells was prepared with TRIzol™ (ThermoFisher Scientific) and RNA Clean and Concentrator™-5 kit (Zymo Research) following the product instructions. RNA integrity and quantity was assessed by NanoDrop Spectrophotometer (ThermoFisher Scientific). For analysis of mRNA expression, oligo-dT-primed cDNA was obtained using the High Capacity cDNA Reverse Transcription Kit (ThermoFisher Scientific), and used as template to quantify: human and murine IFNA1 (Hs03044218_g1, Mm03030145_gH), human and murine IFNB1 (Hs01077958_s1, Mm00439552_s1), human and murine CXCL9 (Hs00171065_ml, Mm00434946_ml), and human and murine GAPDH (Hs02786624_g1, Mm99999915_g1). Analysis was determined by RT-PCR using TaqMan®Fast Universal PCR Master Mix on a 7500 Fast Real-Time PCR System (ThermoFisher Scientific). Comparative RT-PCR was performed in triplicate. Relative expression was calculated using the comparative […] (Ct) method.
AMO1^WT and STING^KO cells were either untreated or treated with BTZ for 24 h. Supernatant was collected, and secretion of CXCL9 chemokines was analyzed by MIG (CXCL9) Human Instant ELISA™ Kit (#BMS285INST, ThermoFisher Scientific).
AMO1 WT and STING^KO were cultured for 16 h in the presence of absence of BTZ (5 nM). RNA was extracted as previously described and submitted to NovaSeq RNAseq analysis followed by VIPER NGS Analysis pipeline (Cornwell et al. (2018) BMC Bioinformatics; 19(1):135). Lists of DEGs were applied to the GSEA software. RNAseq data have been submitted to Gene Expression Omnibus (accession number: GSE171837).
(In qPCR the cycle at which signal appears reflects the starting amount.)

The test system of assay [3] is UPR transducer PERK pathway. Nature of the assay: Western blot of UPR/PERK pathway. To be noted: AMO1 and 5TGM1 cells. The assay is classed as cell-based. As to the method: Cell lysis was performed in RIPA buffer (Boston Bio Products) supplemented with Halt™ protease and phosphatase inhibitor cocktail (Thermo Fisher Scientific). Immunoblot analysis was performed to evaluate expression levels of total protein and phospho-specific isoforms. SDS-PAGE was performed on NuPage™ Bis-Tris gels (ThermoFisher Scientific) using MOPS or MES running buffer. Gels were dry transferred onto 0.45 μm nitrocellulose membranes using the iBlot® Dry Blotting System (ThermoFisher Scientific). The following antibodies (Abs) were used and purchased from Cell Signaling Technology: CRT (Cat. #12238) and GABARAP (Cat. #13733). GAPDH (Cat. #2118) was used as loading controls.
Cell lysis was performed in RIPA buffer (Boston Bio Products) supplemented with Halt protease and phosphatase inhibitor cocktail (ThermoFisher Scientific). SDS-PAGE was performed on NuPage Bis-Tris gels (ThermoFisher Scientific) using MOPS or MES running buffer. Gels were dry transferred onto 0.45 μm nitrocellulose membranes using the iBlot® Dry Blotting System (ThermoFisher Scientific). The following Abs were purchased from Cell Signaling Technology: EIF2A (#5324), p-EIF2A (#3398), ATF4 (#11815), CHOP (2895), CALR (#12238), cGAS (#15102), TBK1 (#3504), pTBK1 (#5483), pIRF3 (#29047), STING (#13647). GAPDH (#2118) and B-ACTIN (#4970) were used as loading controls.
In general terms: A western blot detects proteins with antibodies after separation by electrophoresis.

The test system of assay [4] is human DCs. As to the kind of experiment: DCs maturation assay. The format is cell-based. As to the method: Immature DCs were generated as described above (“Generation of Mo-DCs” section). DCs were cultured alone or with untreated or BTZ pretreated-AMO1 (5 nM) for 24 h. DCs alone were cultured i) without maturation stimuli; ii) with 50 ng/ml of TNFalpha (Millipore Sigma); or iii) with 5 nM of BTZ. After 24 h, cells were harvested and analyzed by flow cytometry using the following Abs: anti-CD83-APC (#551073), CD86-FITC (#555657) and 7-AAD from BD Biosciences and CD11c-BV650 (#563404, Biolegend). Dead cells were excluded by 7-AAD positivity, and CD83 and CD86 expression was evaluated on CD11c+ cells.

Each structure is given as a SMILES string. “Also recorded” adds a separate entry of the source.

For the compound `CC(C)C[C@H](NC(=O)[C@H](Cc1ccccc1)NC(=O)c1cnccn1)B(O)O` [BTZ, bortezomib], the “CALR exposure on cell surface” value in assay [1] (5TGM1 Sting^KO, BTZ 7.5 nM) was “did not alter CALR exposure process”; in assay [1] (5TGM1 WT, BTZ 1-10 nM), “can induce hallmarks of ICD in human and murine MM cell lines; also recorded: dose-dependent increase of CTLR exposure”. Further, the “type-I IFN response gene sets (RNA-seq)” value in assay [2] (AMO1, 16 h) is reported as “positive enrichment of gene sets included in the type-I IFN response hallmark signature; also recorded: MM cells engage in a type I IFN response after treatment with BTZ”. The “CXCL9 transcript and secreted CXCL9 (ELISA)” value in assay [2] (AMO1 STING^KO) is given as “neither CXCL9 transcript or its secreted form were detected”. Moreover, the “type-I IFN response (RNA-seq; IFNA1, IFNB1 qRT-PCR)” value in assay [2] (AMO1 STING^KO) is “did not activate transcription of genes in the IFNs response or increase the levels of IFNA1 and IFNB1 transcripts; also recorded: STING dependent”. Further, the “IFNA1, IFNB1 and CXCL9 transcripts (qRT-PCR)” value in assay [2] (AMO1 and NCI-H929, 16 h) is “increased IFNA1, IFNB1 and CXCL9 transcripts”. Moreover, the “PERK pathway activation (p-eIF2-alpha, CHOP, ATF4)” value in assay [3] was “activated the UPR transducer PERK pathway”. Also, the “expression of CD83 and CD86 maturation markers on DCs” value in assay [4] (24 h co-culture with BTZ (5 nM) pretreated AMO1) was “higher expression of CD86/CD83 on cell surface; also recorded: increased expression of CD83 and CD86 maturation markers”; in assay [4] (DCs with BTZ alone (5 nM), no MM cells), “not triggered by either untreated multiple myeloma cells or BTZ alone”.
